The values below come from patent publication US10759766B2, “Certain chemical entities, compositions, and methods” (NeuPharma, Inc., priority 2011, dated 2020).

SMILES strings stand for the structures.

One experiment concerns the target BRAF (Homo sapiens (Human), UniProt P15056). As to the kind of experiment: Z′-LYTE kinase inhibition assay (Invitrogen), BRAF. The format is biochemical. The following applies: 1 μM compound, Z′-LYTE method; read-out: % inhibition at 1 μM against BRAF. As for the experimental part:
Inhibitory activities Inhibitory activities of compounds against BRAF, and BRAF V600E were measured by Invitrogen using Z′-LYTE® Method as briefly described in the following. 4× Test compounds are dissolved in 1% DMSO. […] ATP solutions are diluted to a 4×ATP working concentration in Kinase Buffer (50 mM HEPES pH 7.5, 0.01% BRIJ-35, 10 mM MgCl2, 1 mM EGTA). Reaction started by 30-second shaking of mixture consisting of 2.5 μL 4× test compound, […] and 2.5 μL 4×ATP Solution on Bar-coded Corning, low volume NBS, black 384-well plate (Corning Cat. #3676). Then the mixture was incubated for 60-minute at room temperature for the kinase reaction, followed by addition of 5 μL of a 1:1024 dilution of development reagent A and 30-second plate shake. The mixture was then incubated for another 60-minute at room temperature for development reaction. Fluorescence was read by plate reader. IC50 was calculated by plotting the concentration of compound vs the percentage of inhibition in treated wells using GraphPad Prism 5.

The target of another experiment is BRAF V600E (Homo sapiens (Human), UniProt P15056, V600E). Nature of the experiment: Z′-LYTE kinase inhibition assay (Invitrogen), BRAF V600E. The following applies: Z′-LYTE method; for inhibition at 1 µM: 1 μM compound, read-out: % inhibition at 1 μM against BRAF V600E; for IC50: read-out: IC50 against BRAF V600E. The format is biochemical. The essentials: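 FRET-based Z′-LYTE peptide phosphorylation format in 50 mM HEPES pH 7.5, 0.01% BRIJ-35, 10 mM MgCl2, 1 mM EGTA with ATP. Kinase reaction 60 min at room temperature, then protease development step 60 min at room temperature before fluorescence read. IC50 from compound concentration versus percent inhibition.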
BRAF V600E, sequence (P15056 whole entry V600E): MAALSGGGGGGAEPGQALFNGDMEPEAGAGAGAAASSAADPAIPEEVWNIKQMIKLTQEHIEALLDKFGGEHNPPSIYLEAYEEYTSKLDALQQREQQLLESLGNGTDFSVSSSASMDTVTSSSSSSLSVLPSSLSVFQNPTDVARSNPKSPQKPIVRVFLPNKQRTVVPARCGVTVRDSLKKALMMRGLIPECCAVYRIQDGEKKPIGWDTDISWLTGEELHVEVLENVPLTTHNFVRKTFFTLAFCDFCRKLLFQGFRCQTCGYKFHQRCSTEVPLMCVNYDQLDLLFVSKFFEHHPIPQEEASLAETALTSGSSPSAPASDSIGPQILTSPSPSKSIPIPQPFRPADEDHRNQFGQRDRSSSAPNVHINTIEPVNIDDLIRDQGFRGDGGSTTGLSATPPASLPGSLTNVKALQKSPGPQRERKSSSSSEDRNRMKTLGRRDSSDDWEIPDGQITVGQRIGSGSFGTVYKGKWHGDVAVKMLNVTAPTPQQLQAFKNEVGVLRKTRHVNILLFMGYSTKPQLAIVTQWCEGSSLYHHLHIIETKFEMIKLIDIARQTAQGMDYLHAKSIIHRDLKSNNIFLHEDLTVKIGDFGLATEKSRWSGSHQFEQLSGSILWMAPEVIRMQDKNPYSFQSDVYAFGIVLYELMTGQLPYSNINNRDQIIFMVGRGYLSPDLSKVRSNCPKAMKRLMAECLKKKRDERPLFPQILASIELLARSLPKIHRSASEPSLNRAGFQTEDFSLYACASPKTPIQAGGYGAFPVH

The next experiment deals with KDR (VEGFR2) (Homo sapiens (Human), UniProt P35968). Nature of the experiment: Z′-LYTE kinase inhibition assay (Invitrogen), KDR. The following applies: Z′-LYTE method; for inhibition at 1 µM: 1 μM compound, read-out: % inhibition at 1 μM against KDR; for IC50: read-out: IC50 against KDR. It counts as biochemical. The essentials:
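Z′-LYTE FRET assay: 10 μL reactions with 0.5–11.7 ng KDR and 2 μM Tyr 01 peptide in 50 mM HEPES pH 7.5, 10 mM MgCl2, 1 mM EGTA, 0.01% BRIJ-35, 1 h at room temperature. Development Reagent B (1:256) added for 60 min, fluorescence read; IC50 from concentration–inhibition curves.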

The subject of a further experiment is A375 cells. As to the kind of experiment: Inhibition of cancer cell growth, MTT assay, A375. It counts as cell-based. The following applies: Homo sapiens, A-375, 72 h exposure. The gist of the method:
(§1)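 IC50 derived from percent growth inhibition versus concentration, tested in triplicate. Growth inhibition came from MTT read at 570 nm after 72 h drug exposure, relative to viable cells at dosing. Cells (about 4000/well, RPMI 1640 + 10% FBS) adhered 24 h before treatment; final DMSO 1%.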
A general note: Formazan colour is commonly taken as a measure of viable cells.

In a further experiment the test system is A549 cells. As to the kind of experiment: Inhibition of cancer cell growth, MTT assay, A549. The format is cell-based. The following applies: Homo sapiens, A549, 72 h exposure. The essentials:
as §1

KDR (VEGFR2), sequence (P35968 20-1356): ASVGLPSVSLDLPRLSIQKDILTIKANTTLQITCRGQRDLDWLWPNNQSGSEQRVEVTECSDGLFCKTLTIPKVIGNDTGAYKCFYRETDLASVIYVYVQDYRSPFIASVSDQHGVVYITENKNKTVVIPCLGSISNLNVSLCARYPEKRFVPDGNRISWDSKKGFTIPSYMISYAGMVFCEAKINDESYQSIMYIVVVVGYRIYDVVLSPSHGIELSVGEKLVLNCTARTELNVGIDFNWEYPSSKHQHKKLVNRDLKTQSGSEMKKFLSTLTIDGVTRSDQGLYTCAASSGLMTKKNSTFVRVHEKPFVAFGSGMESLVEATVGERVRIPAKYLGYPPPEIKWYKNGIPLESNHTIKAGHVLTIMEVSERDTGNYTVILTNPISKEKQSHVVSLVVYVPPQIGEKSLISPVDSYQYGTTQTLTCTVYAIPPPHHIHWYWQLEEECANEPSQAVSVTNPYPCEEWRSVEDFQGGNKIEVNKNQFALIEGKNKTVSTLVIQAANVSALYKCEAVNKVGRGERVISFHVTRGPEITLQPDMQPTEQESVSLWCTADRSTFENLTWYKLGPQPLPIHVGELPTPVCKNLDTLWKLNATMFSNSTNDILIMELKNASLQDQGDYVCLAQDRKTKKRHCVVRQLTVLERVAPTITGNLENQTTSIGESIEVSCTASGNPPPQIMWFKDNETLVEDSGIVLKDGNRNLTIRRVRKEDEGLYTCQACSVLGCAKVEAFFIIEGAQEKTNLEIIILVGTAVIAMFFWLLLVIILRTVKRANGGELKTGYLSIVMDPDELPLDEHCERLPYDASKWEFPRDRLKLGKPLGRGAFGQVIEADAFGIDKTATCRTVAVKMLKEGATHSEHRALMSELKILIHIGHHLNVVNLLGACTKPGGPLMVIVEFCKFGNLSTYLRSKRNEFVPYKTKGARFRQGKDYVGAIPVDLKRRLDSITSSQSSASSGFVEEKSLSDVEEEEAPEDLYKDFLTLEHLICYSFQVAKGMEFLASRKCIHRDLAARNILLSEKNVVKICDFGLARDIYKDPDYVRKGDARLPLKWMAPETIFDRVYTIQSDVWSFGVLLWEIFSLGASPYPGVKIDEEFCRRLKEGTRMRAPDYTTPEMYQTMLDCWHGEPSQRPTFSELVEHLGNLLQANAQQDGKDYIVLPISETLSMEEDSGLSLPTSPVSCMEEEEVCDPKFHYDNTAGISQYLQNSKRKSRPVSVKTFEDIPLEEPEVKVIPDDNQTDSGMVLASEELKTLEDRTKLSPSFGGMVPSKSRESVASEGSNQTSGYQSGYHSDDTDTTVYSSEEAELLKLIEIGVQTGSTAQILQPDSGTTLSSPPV
BRAF, sequence (P15056 whole entry): as the sequence (P15056 whole entry V600E) above, with E600V counted along it

For the compound `Cn1cc(-c2cnc3ccc(C(=O)c4cccc(NC(=O)Nc5ccc(Cl)c(C(F)(F)F)c5)c4)cc3n2)cn1` [Compound C028, 1-(4-chloro-3-(trifluoromethyl)phenyl)-3-(3-(3-(1-methyl-1H-pyrazol-4-yl)quinoxaline-6-carbonyl)phenyl)urea], the inhibition at 1 µM was 70 to 89% on BRAF, more than 89% on BRAF V600E and more than 89% on KDR (VEGFR2). Also, the IC50 was less than 100 nM at BRAF V600E, less than 100 nM at KDR (VEGFR2), less than 1000 nM in the experiment with A375 cells and less than 2000 nM in the experiment with A549 cells.

For the compound `O=C(Nc1cccc(C(=O)c2ccc3ncc(-c4cccnc4)nc3c2)c1)c1ccc(C(F)(F)F)c(Cl)c1` [Compound C124, 3-chloro-N-(3-(3-(pyridin-3-yl)quinoxaline-6-carbonyl)phenyl)-4-(trifluoromethyl)benzamide], the results for the inhibition at 1 µM at BRAF, on BRAF V600E and on KDR (VEGFR2) were less than 70%, more than 89% and more than 89%, respectively. Further, the half-maximal inhibitory concentration (IC50) on BRAF V600E is less than 100 nM; at KDR (VEGFR2), less than 100 nM; in the experiment with A375 cells it was more than 5000 nM; in the experiment on A549 cells, more than 5000 nM.

Consider `O=C(Nc1cccc(C(=O)c2ccc3nccnc3c2)c1)c1cccc(C(F)(F)F)c1` [Compound C110, N-(3-(quinoxaline-6-carbonyl)phenyl)-3-(trifluoromethyl)benzamide], for which the inhibition at 1 µM is 70 to 89% at BRAF, 70 to 89% on BRAF V600E and less than 70% on KDR (VEGFR2). Besides, the half-maximal inhibitory concentration (IC50) was more than 5000 nM with A375 cells and 2000 to 5000 nM in the experiment on A549 cells.

As for `O=C(Nc1cccc(C(F)(F)F)c1)Nc1ccc(F)c(C(=O)c2ccc3ncc(N4CCOCC4)nc3c2)c1` [Compound C036, 1-(4-fluoro-3-(3-morpholinoquinoxaline-6-carbonyl)phenyl)-3-(3-(trifluoromethyl)phenyl)urea], the inhibition at 1 µM is less than 70% at BRAF, 70 to 89% at BRAF V600E and more than 89% on KDR (VEGFR2). Also, the IC50 at BRAF V600E is less than 100 nM; on KDR (VEGFR2), less than 100 nM; in the experiment with A375 cells, less than 1000 nM; in the experiment on A549 cells it was less than 2000 nM.

With `O=C(Nc1cccc(C(=O)c2ccc3nccnc3c2)c1)c1ccc(Cl)c(C(F)(F)F)c1` [Compound C111, 4-chloro-N-(3-(quinoxaline-6-carbonyl)phenyl)-3-(trifluoromethyl)benzamide], the results for the inhibition at 1 µM on BRAF, on BRAF V600E and at KDR (VEGFR2) were less than 70%, 70 to 89% and less than 70%, respectively. The concentration for half-maximal inhibition (IC50) in the experiment on A375 cells is more than 5000 nM; in the experiment with A549 cells, less than 2000 nM.

With `O=C(Nc1cncc(F)c1)Nc1ccc(F)c(C(=O)c2ccc3ncc(N4CCOCC4)nc3c2)c1` [Compound C079, 1-(4-fluoro-3-(3-morpholinoquinoxaline-6-carbonyl)phenyl)-3-(5-fluoropyridin-3-yl)urea], the inhibition at 1 µM is more than 89% on BRAF, more than 89% at BRAF V600E and 70 to 89% on KDR (VEGFR2). Also, the IC50 in the experiment on A375 cells and in the experiment on A549 cells was more than 5000 nM throughout.

As to `O=C(Nc1ccc(Cl)c(C(F)(F)F)c1)Nc1ccc(F)c(C(=O)c2ccc3nccnc3c2)c1Cl` [Compound C008, 1-(4-chloro-3-(trifluoromethyl)phenyl)-3-(2-chloro-4-fluoro-3-(quinoxaline-6-carbonyl)phenyl)urea], the inhibition at 1 µM at BRAF, on BRAF V600E and at KDR (VEGFR2) was less than 70% throughout. The IC50 is more than 5000 nM in the experiment with A375 cells and 2000 to 5000 nM in the experiment on A549 cells.

In the case of `COc1cnc2ccc(C(=O)c3cc(NC(=O)Nc4ccc(F)cc4)ccc3F)cc2n1` [Compound C080, 1-(4-fluoro-3-(3-methoxyquinoxaline-6-carbonyl)phenyl)-3-(4-fluorophenyl)urea], the inhibition at 1 µM at BRAF was 70 to 89%; at BRAF V600E it was more than 89%; on KDR (VEGFR2), 70 to 89%. Moreover, the half-maximal inhibitory concentration (IC50) is less than 100 nM on KDR (VEGFR2), 1000 to 5000 nM with A375 cells and 2000 to 5000 nM with A549 cells.

Consider `O=C(Nc1cccc(C(=O)c2ccc3ncc(N4CCCC4)nc3c2)c1)Nc1cccc(C(F)(F)F)c1` [Compound C020, 1-(3-(3-(pyrrolidin-1-yl)quinoxaline-6-carbonyl)phenyl)-3-(3-(trifluoromethyl)phenyl)urea], for which the inhibition at 1 µM is 70 to 89% at BRAF, more than 89% at BRAF V600E and more than 89% on KDR (VEGFR2). The figures for the 50% inhibitory concentration (IC50) with A375 cells and in the experiment on A549 cells were 1000 to 5000 nM and more than 5000 nM, respectively.

As to `O=C(Nc1cc(F)c(F)c(C(=O)c2ccc3ncc(N4CCOCC4)nc3c2)c1)Nc1ccc(Cl)c(C(F)(F)F)c1` [Compound C041, 1-(4-chloro-3-(trifluoromethyl)phenyl)-3-(3,4-difluoro-5-(3-morpholinoquinoxaline-6-carbonyl)phenyl)urea], the inhibition at 1 µM on BRAF is less than 70%; at BRAF V600E, 70 to 89%; at KDR (VEGFR2), 70 to 89%. Moreover, the results for the IC50 in the experiment with A375 cells and in the experiment on A549 cells were less than 1000 nM and less than 2000 nM, respectively.

Take `O=C(Nc1cccc(Cl)c1)Nc1cccc(C(=O)c2ccc3nccnc3c2)c1` [Compound C003, 1-(3-chlorophenyl)-3-(3-(quinoxaline-6-carbonyl)phenyl)urea]: the inhibition at 1 µM on BRAF was 70 to 89%; at BRAF V600E, more than 89%; at KDR (VEGFR2) it was 70 to 89%. Also, the 50% inhibitory concentration (IC50) was less than 1000 nM in the experiment on A375 cells and 2000 to 5000 nM in the experiment on A549 cells.

For `O=C(Nc1cccc(C(=O)c2ccc3ncc(-c4cccnc4)nc3c2)c1)Nc1ccc(Cl)c(C(F)(F)F)c1` [Compound C022, 1-(4-chloro-3-(trifluoromethyl)phenyl)-3-(3-(3-(pyridin-3-yl)quinoxaline-6-carbonyl)phenyl)urea], the inhibition at 1 µM on BRAF is 70 to 89%; on BRAF V600E, more than 89%; at KDR (VEGFR2), more than 89%. In addition, the IC50 on BRAF V600E is less than 100 nM; at KDR (VEGFR2), less than 100 nM; in the experiment on A375 cells, 1000 to 5000 nM; in the experiment with A549 cells it was more than 5000 nM.

Take `O=C(Nc1cccc(C(F)(F)F)c1)Nc1ccc(F)c(C(=O)c2ccc3nccnc3c2)c1` [Compound C014, 1-(4-fluoro-3-(quinoxaline-6-carbonyl)phenyl)-3-(3-(trifluoromethyl)phenyl)urea]: the results for the inhibition at 1 µM on BRAF, on BRAF V600E and on KDR (VEGFR2) were less than 70%, more than 89% and 70 to 89%, respectively. For the same compound, the IC50 is less than 100 nM on BRAF V600E, less than 100 nM at KDR (VEGFR2), less than 1000 nM in the experiment with A375 cells and less than 2000 nM with A549 cells.

Consider `O=C(Nc1cccc(C(=O)c2ccc3nccnc3c2)c1)c1cccc(F)c1` [Compound C105, 3-fluoro-N-(3-(quinoxaline-6-carbonyl)phenyl)benzamide], for which the inhibition at 1 µM was less than 70% on BRAF, 70 to 89% at BRAF V600E and less than 70% on KDR (VEGFR2). The results for the half-inhibitory concentration (IC50) in the experiment with A375 cells and with A549 cells were 1000 to 5000 nM and less than 2000 nM, respectively.

With `O=C(Nc1ccc(F)c(C(=O)c2ccc3nccnc3c2)c1Cl)c1ccc(Cl)c(C(F)(F)F)c1` [Compound C112, 4-chloro-N-(2-chloro-4-fluoro-3-(quinoxaline-6-carbonyl)phenyl)-3-(trifluoromethyl)benzamide], the inhibition at 1 µM on BRAF, on BRAF V600E and on KDR (VEGFR2) was less than 70% in each case. For the same compound, the half-inhibitory concentration (IC50) in the experiment on A375 cells and in the experiment on A549 cells was more than 5000 nM in each case.

`O=C(Nc1cccc(C(=O)c2ccc3nccnc3c2)c1)Nc1cc(C(F)(F)F)ccc1Cl` [Compound C002, 1-(2-chloro-5-(trifluoromethyl)phenyl)-3-(3-(quinoxaline-6-carbonyl)phenyl)urea]: the inhibition at 1 µM at BRAF is 70 to 89%; at BRAF V600E, more than 89%; at KDR (VEGFR2), less than 70%. Moreover, the IC50 with A375 cells is 1000 to 5000 nM; in the experiment on A549 cells, less than 2000 nM.

For `O=C(Nc1cncc(Cl)c1)Nc1ccc(F)c(C(=O)c2ccc3ncc(N4CCOCC4)nc3c2)c1` [Compound C081, 1-(5-chloropyridin-3-yl)-3-(4-fluoro-3-(3-morpholinoquinoxaline-6-carbonyl)phenyl)urea], the values for the inhibition at 1 µM at BRAF, on BRAF V600E and at KDR (VEGFR2) were more than 89%, more than 89% and 70 to 89%, respectively. Moreover, the 50% inhibitory concentration (IC50) in the experiment with A375 cells was less than 1000 nM; with A549 cells it was more than 5000 nM.

What is called inhibition is the change of the read-out against control, counted positive when it falls. A word on the IC50: it is the concentration at which inhibition is half-maximal.
